Measurements published in patent US20110178104A1, “Anti-Heparin Compounds” (POLYMEDIX INC., priority 2010, published 2011).
Several values for one entry are separate records, joined by “and”; a condition that tells them apart may be missing. Equal values may be shown once. Read-outs that look alike come from different tables or passages of the source.

Tests used:
fondaparinux = test: FXa amidolytic assay (Example 10), fondaparinux; details: read-out: Fondap FXa EC50
Experimental: (§1) Two μl of test agent are added (range between 0.01 and 23 ug/ml) and incubated for 5 minutes at 23° C. Bovine Factor Xa was added to a final concentration of 0.636 nkat/mL and incubated for a further 10 minutes at 23° C.

enoxaparin = test: FXa amidolytic assay (Example 10), enoxaparin; details: read-out: Enox FXa EC50
Experimental: as §1

tinzaparin = test: FXa amidolytic assay (Example 10), tinzaparin; details: read-out: Tinzap FXa EC50
Experimental: as §1

UFH = test: FXa amidolytic assay (Example 10), UFH; details: read-out: Heparin FXa uM EC50
Experimental: as §1

Unfractionated heparin = test: aPTT clotting assay, UFH 0.4 U/mL in plasma (Example 10); format: biochemical
Experimental: aPTT clotting Assay: Unfractionated heparin was mixed with plasma at a final concentration of 0.4 U/mL (or concentration which increases aPTT time to between 120 and 300 seconds). […] The ACL Elite Hemostasis analyzer (Beckman Coulter™) was used to add aPTT reagent (HemosIL SynthASil) to supplemented plasma. Clotting was initiated by addition of CaCl2 and time to clot was recorded.

[1] = fondaparinux 0.02 μg/mL, human antithrombin, bovine Factor Xa
[2] = enoxaparin 0.1 ug/ml, human antithrombin, bovine Factor Xa
[3] = tinzaparin 0.1 ug/ml, human antithrombin, bovine Factor Xa
[4] = UFH 0.03 units/mL, human antithrombin, bovine Factor Xa
[5] = unfractionated heparin 0.4 U/mL in plasma, aPTT clotting

Structure (SMILES) | EC50 (fondaparinux; [1]) | EC50 (enoxaparin; [2]) | EC50 (tinzaparin; [3]) | EC50 (UFH; [4]) [µM] | EC50 (Unfractionated heparin; [5]) [µM] | EC50 (fondaparinux) [µM] | EC50 (enoxaparin) [µM] | EC50 (tinzaparin) [µM] | EC50 (UFH) [µM] | EC50 (Unfractionated heparin) [µM]
COc1ccc(NC(=O)[C@@H](CCCNC(=N)N)NC(=O)c2cc(NC(=O)[C@@H](CCCNC(=N)N)NC(=O)c3cc(NC(=O)[C@@H](CCCNC(N)=O)NC(=O)c4cc(NC(=O)[C@H](N)CCCNC(=N)N)ccc4OC)ccc3OC)ccc2OC)cc1C(N)=O [Compound 219] | 0.731 µM | 0.095 µM | 0.187 µM | 0.153 | 1.17 | – | – | – | – | –
COc1ccc(NC(=O)[C@H](CCCCCN)NC(=O)c2cc(NC(=O)[C@H](CCCCCN)NC(=O)c3cc(NC(=O)[C@H](CCCCCN)NC(=O)c4cc(NC(=O)[C@@H](N)CCCCCN)ccc4OC)ccc3OC)ccc2OC)cc1C(N)=O [Compound 236] | > 12.6 µM | 0.099 µM | 0.396 µM | 0.364 | 1.93 | – | – | – | – | –
COc1ccc(C(=O)N[C@@H](CCCCN)C(=O)Nc2ccc(OC)c(C(=O)N[C@@H](CCCCN)C(=O)Nc3ccc(OC)c(C(=O)N[C@@H](CCCCN)C(=O)Nc4ccc(OC)c(C(N)=O)c4)c3)c2)cc1NC(=O)[C@@H](N)CCCCN [Compound 237] | 3.62 µM and 3.73 µM | 0.177 µM and 0.341 µM | 0.109 µM and 0.121 µM | 0.199 | 1.14 | – | – | – | – | –
CNCNC(=O)c1cccc(C(=O)N[C@H]2CC[C@H](NC(=O)c3cc(C(=O)N[C@H]4CC[C@H](NC(=O)c5cccc(C(=O)NCCN)c5)CC4)c(OC)cc3OC)CC2)c1 [Compound 366] | > 10 µM | > 5 µM | > 5 µM | 15.5 | > 10 | – | – | – | – | –
COc1cc(OC)c(C(=O)N[C@H]2CC[C@@H](NC(=O)c3cc(C(=O)NCCN)c(OCCCCCN)cc3OCCCCCN)CC2)cc1C(=O)N[C@H]1CC[C@@H](NC(=O)c2cc(C(=O)NCCN)c(OCCCCCN)cc2OCCCCCN)CC1 [Compound 367] | 0.514 µM | 0.042 µM | 0.106 µM | 0.085 | 1.27 | – | – | – | – | –
NCCCC[C@H](NC(=O)c1cccc(NC(=O)[C@H](CCCCN)NC(=O)c2cccc(NC(=O)[C@H](CCCCN)NC(=O)c3cccc(NC(=O)[C@@H](N)CCCCN)c3)c2)c1)C(=O)Nc1cccc(C(N)=O)c1 [Compound 368] | > 10 µM | 11 µM | 3.39 µM | 3.69 | 9.25 | – | – | – | – | –
COc1ccc(NC(=O)[C@@H](CCCNC(=N)N)NC(=O)c2cc(NC(=O)[C@@H](CCCNC(N)=O)NC(=O)c3cc(NC(=O)[C@@H](CCCNC(N)=O)NC(=O)c4cc(NC(=O)[C@H](N)CCCNC(N)=O)ccc4OC)ccc3OC)ccc2OC)cc1C(N)=O [Compound 370] | > 10 µM | 0.463 µM | 0.259 µM | 12.5 | 1.46 | – | – | – | – | –
COc1ccc(NC(=O)[C@@H](CCCNC(N)=O)NC(=O)c2cc(NC(=O)[C@@H](CCCNC(=N)N)NC(=O)c3cc(NC(=O)[C@@H](CCCNC(N)=O)NC(=O)c4cc(NC(=O)[C@H](N)CCCNC(N)=O)ccc4OC)ccc3OC)ccc2OC)cc1C(N)=O [Compound 371] | > 10 µM | 0.252 µM | 0.197 µM | > 10 | 3.26 | – | – | – | – | –
COc1ccc(NC(=O)[C@@H](CCCNC(N)=O)NC(=O)c2cc(NC(=O)[C@@H](CCCNC(N)=O)NC(=O)c3cc(NC(=O)[C@@H](CCCNC(=N)N)NC(=O)c4cc(NC(=O)[C@H](N)CCCNC(N)=O)ccc4OC)ccc3OC)ccc2OC)cc1C(N)=O [Compound 372] | 0.544 µM | 0.225 µM | 0.15 µM | > 10 | 2.97 | – | – | – | – | –
COc1ccc(NC(=O)[C@@H](CCCNC(N)=O)NC(=O)c2cc(NC(=O)[C@@H](CCCNC(N)=O)NC(=O)c3cc(NC(=O)[C@@H](CCCNC(N)=O)NC(=O)c4cc(NC(=O)[C@H](N)CCCNC(=N)N)ccc4OC)ccc3OC)ccc2OC)cc1C(N)=O [Compound 373] | > 10 µM | 0.123 µM | 0.123 µM | > 10 | 2.36 | – | – | – | – | –
COc1ccc(NC(=O)[C@@H](CCCNC(=N)N)NC(=O)c2cc(NC(=O)[C@@H](CCCNC(=N)N)NC(=O)c3cc(NC(=O)[C@@H](CCCNC(N)=O)NC(=O)c4cc(NC(=O)[C@H](N)CCCNC(N)=O)ccc4OC)ccc3OC)ccc2OC)cc1C(N)=O [Compound 374] | 1.81 µM | 0.157 µM | 0.114 µM | 0.677 | 2.42 | – | – | – | – | –
COc1ccc(NC(=O)[C@@H](CCCNC(N)=O)NC(=O)c2cc(NC(=O)[C@@H](CCCNC(N)=O)NC(=O)c3cc(NC(=O)[C@@H](CCCNC(=N)N)NC(=O)c4cc(NC(=O)[C@H](N)CCCNC(=N)N)ccc4OC)ccc3OC)ccc2OC)cc1C(N)=O [Compound 375] | 1.26 µM | 0.113 µM | 0.076 µM | 0.681 | 2.69 | – | – | – | – | –
COc1ccc(NC(=O)[C@@H](CCCNC(=N)N)NC(=O)c2cc(NC(=O)[C@@H](CCCNC(N)=O)NC(=O)c3cc(NC(=O)[C@@H](CCCNC(N)=O)NC(=O)c4cc(NC(=O)[C@H](N)CCCNC(=N)N)ccc4OC)ccc3OC)ccc2OC)cc1C(N)=O [Compound 376] | 1.67 µM | 0.191 µM | 0.114 µM | 0.416 | 1.89 | – | – | – | – | –
COc1ccc(NC(=O)[C@@H](CCCNC(N)=O)NC(=O)c2cc(NC(=O)[C@@H](CCCNC(=N)N)NC(=O)c3cc(NC(=O)[C@@H](CCCNC(=N)N)NC(=O)c4cc(NC(=O)[C@H](N)CCCNC(N)=O)ccc4OC)ccc3OC)ccc2OC)cc1C(N)=O [Compound 377] | – | – | – | – | – | 1.44 | 0.149 | 0.092 | 0.66 | 2.09
COc1ccc(NC(=O)[C@@H](CCCNC(=N)N)NC(=O)c2cc(NC(=O)[C@@H](CCCNC(N)=O)NC(=O)c3cc(NC(=O)[C@@H](CCCNC(=N)N)NC(=O)c4cc(NC(=O)[C@H](N)CCCNC(N)=O)ccc4OC)ccc3OC)ccc2OC)cc1C(N)=O [Compound 378] | – | – | – | – | – | 2.33 | 0.11 | 0.073 | 0.49 | 2.01
COc1cc(OC)c(C(=O)N[C@H]2CC[C@@H](NC(=O)c3cc(C(=O)N[C@H]4CC[C@@H](N=C(N(C)C)N(C)C)CC4)c(OC)cc3OC)CC2)cc1C(=O)NCCN [Compound 382] | > 10 µM | > 5 µM | > 5 µM | > 20 | > 10 | – | – | – | – | –
COc1cc(OC)c(C(=O)N[C@H]2CC[C@@H](NC(=O)c3cc(C(=O)N[C@H]4CC[C@@H](N)CC4)c(OC)cc3OC)CC2)cc1C(=O)NCCN [Compound 383] | > 10 µM | > 5 µM | > 5 µM | > 20 | > 10 | – | – | – | – | –
COc1cc(OC)c(C(=O)N2CCC(NC(=O)c3cc(C(=O)NC4CCN(C(=O)c5cc(C(=O)NCCN)c(OC)cc5OC)CC4)c(OC)cc3OC)CC2)cc1C(=O)NCCN [Compound 384] | > 10 µM | > 5 µM | > 5 µM | > 20 | > 10 | – | – | – | – | –
COc1cc(OC)c(C(=O)NC2CCN(C(=O)c3cc(C(=O)NCCN)c(OC)cc3OC)CC2)cc1C(=O)O [Compound 385] | > 10 µM | > 5 µM | > 5 µM | > 20 | > 10 | – | – | – | – | –
COc1cc(OC)c(C(=O)NCCNC(=O)c2cc(C(=O)NCCNC(=O)c3cc(C(=O)NCCN)c(OC)cc3OC)c(OC)cc2OC)cc1C(=O)NCCN [Compound 386] | > 10 µM | > 5 µM | 7.24 µM | 19.4 | – | – | – | – | – | –
